{"source": "patent US10226509B2", "about": "“Lymphangiogenesis inhibitors for cancer and for graft survival” (TUFTS UNIVERSITY, priority 2014, dated 2019)", "key": {"PDPN and integrin α5β1": {"molecular_target": "T1, PDPN and integrin α5β1 (Homo sapiens, UniProt P05556+P08648+Q86YL7)", "T1 construct": "endogenous in cells; host or cells: primary lymphatic endothelial cells (LECs)", "T1 sequence (Q86YL7 23-162)": "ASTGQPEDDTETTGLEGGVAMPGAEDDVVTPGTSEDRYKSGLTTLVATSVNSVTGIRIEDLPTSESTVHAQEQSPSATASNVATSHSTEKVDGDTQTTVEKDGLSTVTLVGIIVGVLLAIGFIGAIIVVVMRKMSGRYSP", "T1 sequence (P08648 42-894 limits assumed)": "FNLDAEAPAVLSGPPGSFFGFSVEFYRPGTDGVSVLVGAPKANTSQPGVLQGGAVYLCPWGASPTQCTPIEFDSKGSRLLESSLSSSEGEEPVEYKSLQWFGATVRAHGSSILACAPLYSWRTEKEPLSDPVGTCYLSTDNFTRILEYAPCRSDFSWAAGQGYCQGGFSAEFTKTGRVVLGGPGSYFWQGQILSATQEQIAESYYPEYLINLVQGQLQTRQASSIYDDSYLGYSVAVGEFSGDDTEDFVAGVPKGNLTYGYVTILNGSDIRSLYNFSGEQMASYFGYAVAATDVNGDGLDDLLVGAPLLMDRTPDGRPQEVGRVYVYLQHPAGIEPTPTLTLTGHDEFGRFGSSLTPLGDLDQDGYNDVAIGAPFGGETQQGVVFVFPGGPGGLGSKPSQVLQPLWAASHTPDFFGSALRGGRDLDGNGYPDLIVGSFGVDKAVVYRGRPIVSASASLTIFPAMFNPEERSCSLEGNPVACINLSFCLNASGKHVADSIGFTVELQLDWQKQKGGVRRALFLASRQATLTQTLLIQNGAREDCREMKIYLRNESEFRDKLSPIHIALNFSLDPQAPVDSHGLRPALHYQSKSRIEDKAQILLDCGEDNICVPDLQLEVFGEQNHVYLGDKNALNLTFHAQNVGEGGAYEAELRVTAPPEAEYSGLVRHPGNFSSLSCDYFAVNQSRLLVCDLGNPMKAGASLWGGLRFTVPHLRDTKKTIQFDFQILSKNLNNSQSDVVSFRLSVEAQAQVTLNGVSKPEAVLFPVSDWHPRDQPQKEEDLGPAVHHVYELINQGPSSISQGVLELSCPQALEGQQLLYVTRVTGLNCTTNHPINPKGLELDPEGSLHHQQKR", "T1 sequence (P08648 895-1049 limits assumed)": "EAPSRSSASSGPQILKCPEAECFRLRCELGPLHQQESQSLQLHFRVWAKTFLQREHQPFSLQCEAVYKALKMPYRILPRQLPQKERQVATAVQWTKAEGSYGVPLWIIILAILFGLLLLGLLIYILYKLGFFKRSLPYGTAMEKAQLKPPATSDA", "T1 sequence (P05556 21-798)": "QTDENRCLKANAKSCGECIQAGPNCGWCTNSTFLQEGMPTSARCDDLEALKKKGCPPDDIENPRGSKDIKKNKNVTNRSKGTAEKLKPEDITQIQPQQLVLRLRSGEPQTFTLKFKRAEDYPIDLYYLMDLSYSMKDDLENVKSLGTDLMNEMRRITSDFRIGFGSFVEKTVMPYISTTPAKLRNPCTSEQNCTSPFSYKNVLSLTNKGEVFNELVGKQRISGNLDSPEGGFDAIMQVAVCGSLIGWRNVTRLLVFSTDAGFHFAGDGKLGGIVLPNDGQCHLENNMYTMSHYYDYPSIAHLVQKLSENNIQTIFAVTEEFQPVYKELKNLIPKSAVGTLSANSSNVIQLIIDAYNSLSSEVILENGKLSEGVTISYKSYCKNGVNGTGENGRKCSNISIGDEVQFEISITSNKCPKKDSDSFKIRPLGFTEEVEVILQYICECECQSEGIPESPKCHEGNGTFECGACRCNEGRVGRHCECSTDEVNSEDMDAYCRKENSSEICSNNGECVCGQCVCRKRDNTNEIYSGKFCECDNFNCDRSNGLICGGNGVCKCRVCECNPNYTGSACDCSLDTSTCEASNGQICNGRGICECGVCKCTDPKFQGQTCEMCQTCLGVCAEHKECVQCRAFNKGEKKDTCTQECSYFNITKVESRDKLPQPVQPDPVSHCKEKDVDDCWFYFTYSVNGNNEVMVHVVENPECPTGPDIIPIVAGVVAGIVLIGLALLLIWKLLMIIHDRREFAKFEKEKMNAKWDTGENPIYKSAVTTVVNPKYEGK", "assay": "Immunoprecipitation with anti-PDPN from LEC lysates", "assay_type": "cell-based", "details": "galectin-8 for 15 min at 37° C.", "method": "Mouse isotype antibody (15 μg, Santa Cruz Biotechnology) and anti-PDPN (15 μg, clone E-1, Santa Cruz Biotechnology) were immobilized onto AminoLink Plus coupling resin (Pierce) by sodium cyanoborohydride according to manufacturer's instructions. Primary LECs were serum-starved overnight and treated with galectin-8 (0.2 μM) for 15 min at 37° C. After treatment, cells were lysed with IP lysis/wash buffer (25 mM Tris, 150 mM NaCl, 1 mM EDTA, 1% NP-40, 5% glycerol; pH 7.4) supplemented with protease inhibitor cocktails (Roche). After centrifugation (10 min, 13,000 rpm), supernatants (500 μg protein lysates) were pre-cleared by incubation for 1 hour with Pierce control agarose resin at 4° C. The clarified samples were incubated with the Ab-conjugated agarose resins overnight at 4° C. Immunoprecipitates were washed three times with IP lysis/wash buffer and once with conditioning buffer provided by the kit (Pierce). The bound proteins were eluted with low pH elution buffer, neutralized with Tris-HCl (pH 9.0), and analyzed with control inputs by western blotting using anti-integrin al (1:1,000, Abcam), anti-integrin α5 (clone H-104, 1:1,000, Santa Cruz Biotechnology), anti-integrin ([…] (clone N-20, 1:1,000, Santa Cruz Biotechnology), anti-PDPN, anti-galectin-8 (clone NBP1-66520, 1:1,000, Novus Biologicals) and anti-GAPDH as described in examples herein. […]"}, "AKT": {"tested_on": "AKT", "assay": "Western blot of AKT activation in primary LECs", "assay_type": "cell-based, human", "details": "0.5 μM for 0 to 60 minutes or 0 to 0.5 μM for 30 minutes", "method": "(§1) Primary LECs were lysed with Triton lysis buffer supplemented with protease inhibitor cocktail and Phos-STOP phosphatase inhibitor cocktail (Roche), and subjected to electrophoresis in 4-15% SDS-PAGE gels (Bio-Rad). Protein blots of the gels were blocked with 0.5×Odyssey® blocking buffer (OBB, Li-COR). For AKT and ERK signaling, blots were incubated with primary antibodies (rabbit anti-ERK1/2, 1:7500, Cell Signaling Technology; mouse anti-phospho-ERK1/2, Thr202/Tyr204, 1:2000, Cell Signaling Technology; mouse anti-AKT1/2/3, 1:2000, Cell Signaling Technology; rabbit anti-phospho-AKT, Ser473, 1:1500, Cell Signaling Technology) overnight at 4° C. Blots were washed with 0.5% Tween-20/PBS three times, and were incubated with appropriate secondary antibodies (donkey anti-rabbit IRDye 680LT and anti-mouse IRDye 800CW, Li-Cor) for 45 min at 25° C. The blots were scanned by an Odyssey® Infrared Imaging System using Image Studio v2.0 software (Li-COR). […] Signals were detected by Odyssey® Infrared Imaging System. […]"}, "VEGFR-3": {"tested_on": "VEGFR-3", "assay": "Affinity precipitation assay, VEGFR-3", "assay_type": "binding, human", "details": "galectin-conjugated agarose beads, LEC lysates", "method": "Five mg of plant lectins (Vector Labs) and galectins were conjugated to 330 mg of Pierce® NHS-activated agarose dry resin in accordance with the manufacturer's instructions (Thermo Scientific). Primary LECs (Lonza) were lysed in Triton lysis buffer (20 mM Tris-HCl, pH 7.4; 150 mM NaCl; 0.5% Triton X-100 with protease inhibitor cocktail). LEC lysates (250 μg in 500 μL lysis buffer supplemented with 10 mM MgCl2) were incubated with 40 μL (50% slurry) of agarose-conjugated lectins (4° C., overnight). Beads were pelleted by centrifugation at 3000 rpm for 1 min. Non-specific binding proteins were removed by washing the beads with Triton lysis buffer once and PBS twice. Supernatants were discarded; bound proteins were eluted by boiling the beads with 20 μL of 2× Laemmli sample buffer for 7 min, and examined by western blotting.\nNext, a series of examples were performed to determine whether VEGF-C-induced lymphangiogenesis is dependent on Gal-8. To determine whether VEGFR-3 is a Gal-8-binding protein, LEC lysates were incubated with Gal-8-conjugated agarose beads in the presence or absence of 0.1 M of lactose (an inhibiting sugar) or sucrose (a non-inhibiting sugar). Bound proteins were examined and were compared to total cell lysates (input) by western blot using anti-VEGFR-3 antibody. Three forms of VEGFR-3 (125 kDa, 175 kDa and 195 kDa) were detected in total cell lysates (FIG. 5A) (Bando, H., et al. 2004. Int J Cancer 111:184-191.). […] Having shown that Gal-8 binds to VEGFR-3 in LECs and that the carbohydrate-binding activity of Gal-8 is required for the synergistic effect of Gal-8 on VEGF-C-induced LEC sprouting, it was of interest to determine whether VEGFR-3 bears 3′-sialylated glycans."}, "ERK1/2": {"tested_on": "ERK1/2", "assay": "Western blot of ERK activation in primary LECs", "assay_type": "cell-based, human", "details": "0.5 μM for 0 to 60 minutes or 0 to 0.5 μM for 30 minutes", "method": "as §1"}}, "data": [{"substance": "Gal-8: recombinant galectin-8, tandem-repeat type galectin with two different CRDs", "values": [{"measurement": "association between PDPN and integrin α5β1", "setting": "PDPN and integrin α5β1", "value": "increased association between PDPN and integrin α5β1"}, {"measurement": "phosphorylation of AKT (in words)", "setting": "AKT", "value": "induced phosphorylation of AKT and ERK1/2 in time- and dose-dependent manner"}, {"measurement": "binding to VEGFR-3 (in words)", "setting": "VEGFR-3", "value": "interacted with 125 and 195 kDa VEGFR-3 and not with 175 kDa VEGFR-3"}, {"measurement": "phosphorylation of ERK1/2 (in words)", "setting": "ERK1/2", "value": "induced phosphorylation of AKT and ERK1/2 in time- and dose-dependent manner"}]}]}
